40 compounds from US20070032529A1, “Pyrazole compounds and their use as antidiabetes agents” (Japan Tobacco Inc., priority 2005, published 2007) can be followed below.

The target in assay [1] is T1, recombinant human liver glycogen phosphorylase (Homo sapiens, UniProt P06737).
T1 construct: made in house; host or cells: Sf9 insect cells (crude homogenate, diluted, used as the enzyme solution)
T1 sequence (P06737 1-847): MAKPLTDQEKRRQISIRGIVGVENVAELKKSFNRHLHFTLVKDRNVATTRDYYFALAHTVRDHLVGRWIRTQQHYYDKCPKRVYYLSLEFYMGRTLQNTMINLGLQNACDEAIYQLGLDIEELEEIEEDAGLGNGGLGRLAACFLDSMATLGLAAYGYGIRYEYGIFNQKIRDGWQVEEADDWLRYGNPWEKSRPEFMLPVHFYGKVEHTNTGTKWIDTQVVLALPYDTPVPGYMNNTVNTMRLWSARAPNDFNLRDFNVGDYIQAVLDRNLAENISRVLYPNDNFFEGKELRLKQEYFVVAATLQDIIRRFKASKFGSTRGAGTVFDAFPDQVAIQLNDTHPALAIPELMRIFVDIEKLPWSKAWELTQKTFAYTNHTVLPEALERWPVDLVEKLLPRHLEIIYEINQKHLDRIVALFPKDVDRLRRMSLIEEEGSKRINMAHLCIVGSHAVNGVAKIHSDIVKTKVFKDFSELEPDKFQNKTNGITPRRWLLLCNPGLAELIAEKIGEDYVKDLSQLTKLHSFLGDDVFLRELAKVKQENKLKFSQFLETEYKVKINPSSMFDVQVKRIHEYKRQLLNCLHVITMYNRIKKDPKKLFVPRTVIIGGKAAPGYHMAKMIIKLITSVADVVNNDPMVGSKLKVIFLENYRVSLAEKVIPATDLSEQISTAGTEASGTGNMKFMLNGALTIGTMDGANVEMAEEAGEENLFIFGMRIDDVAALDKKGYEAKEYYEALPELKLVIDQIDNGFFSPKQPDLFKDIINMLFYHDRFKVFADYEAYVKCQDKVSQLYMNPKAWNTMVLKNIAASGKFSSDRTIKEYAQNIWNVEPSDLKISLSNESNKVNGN
Description: Measuring liver glycogen phosphorylase activity (forward reaction system, NADPH absorbance at 340 nm). Format: biochemical. In a few lines: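 Sf9 homogenate expressing the enzyme, in pH 6.8 BES/EDTA, with glycogen and phosphate substrate plus glucose, coupled via phosphoglucomutase/G6PDH to NADPH formation. A340 change over 75 min at room temperature, blank-corrected; IC50 linearly interpolated between the two concentrations bracketing 50% inhibition versus 1% DMSO control.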

For assay [2], the system named is db/db mice. Description: Measuring blood plasma glucose concentration in db/db mice (hypoglycemic effect). Format: in vivo. On the set-up: key: ++: compounds exhibiting statistically significant hypoglycemic effect at a dose of 10 mg/kg or less; +: compounds exhibiting not significant but obvious hypoglycemic effect at a dose of 10 mg/kg. Particulars: for vivo (hypoglycemic effect in db/db mice): db/db mice fasted 4 h, oral administration, plasma glucose 1 and 3 hours after administration, dose 10 mg/kg or less, Dunnett test vs solvent. Here is the method:
2. Exemplary Test (2) Method for Measuring Blood Plasma Glucose Concentration
Using db/db mice representing an obesity type of diabetic model were used to examine the effect of compound (1) of the present invention on glucose concentrations in plasma. Plasma glucose concentrations of the db/db mice (9-18 weeks old) were measured, and the mice were divided into groups each of 5 or 8 mice such that there would be no difference in the average value of plasma glucose concentrations. After fasting for four hours, the example compound or the solvent (0.5% methylcellulose) was administered orally to the db/db mice, and plasma glucose concentrations were measured 1 and 3 hours after administration. The analysis of the hypoglycemic effect of the example compound was performed through a statistical test at every hour between the group receiving the solvent and the groups of example compound (Dunnett test).

The mark [3] stands for this setting: enzyme inhibitory activity with respect to liver glycogen phosphorylase, class symbols.
The mark [4] stands for this setting: human liver glycogen phosphorylase, class symbol.

Structures can show the parent of a compound that is named as a salt. Where two headings read alike, the source gives them in different places.

A word on the IC50: it is the midpoint of a concentration-inhibition curve.

Take `CC(C)Oc1ccc(CNC(=O)c2cc(NC(=O)c3cc(F)c(F)cc3Cl)[nH]n2)cn1` [Example 1-31]: the concentration for half-maximal inhibition (IC50) in assay [1] (setting [3]) is < 100 nM. The “vivo (hypoglycemic effect in db/db mice)” value in assay [2] is given as “+”.
For `CCOCCN(C(=O)c1cc(NC(=O)c2cc(F)c(F)cc2Cl)[nH]n1)C1CCCCC1` [Example 1-100] the same measures were < 100 nM and “+”.
For `CN(C)c1nc(Cl)ccc1CNC(=O)c1cc(NC(=O)c2cc(F)c(F)cc2Cl)[nH]n1` [Example 5-30] the same measures were < 100 nM and “+”.
With `O=C(NCc1cccnc1)c1cc(NC(=O)c2cc(F)c(Cl)cc2Cl)[nH]n1` [Example 7-4], in assay [1] (setting [4]), the IC50 was < 100 nM. The “vivo (hypoglycemic effect)” value in assay [2] (db/db mice, blood plasma glucose, dose of 10 mg/kg or less) is reported as “++”.
As for `Cc1cccnc1CNC(=O)c1cc(NC(=O)c2cc(F)c(F)cc2Cl)[nH]n1` [Example 2-8], the 50% inhibitory concentration (IC50) in assay [1] (setting [3]) was < 100 nM. Moreover, the “vivo (hypoglycemic effect in db/db mice)” value in assay [2] is “+”.
On to `O=C(NCc1cscn1)c1cc(NC(=O)c2cc(F)c(F)cc2Cl)[nH]n1` [Example 1-38], for which, in assay [1] (setting [3]), the IC50 was < 100 nM. The “vivo (hypoglycemic effect in db/db mice)” value in assay [2] is on record as “+”.
In the same order, the values of `CCOCCN(C(=O)c1cc(NC(=O)c2cc(F)c(F)cc2Cl)[nH]n1)c1ccccc1` [Example 4-18] are < 100 nM and “+”.
In the same order, the values of `CCCN(Cc1c(Cl)cncc1Cl)C(=O)c1cc(NC(=O)c2cc(F)c(F)cc2Cl)[nH]n1` [Example 1-136] are < 100 nM and “+”.
Consider `O=C(NCc1nc2ccccc2[nH]1)c1cc(NC(=O)c2cc(F)c(F)cc2Cl)[nH]n1` [Example 1-42], for which the IC50 in assay [1] (setting [3]) was < 100 nM. In addition, the “vivo (hypoglycemic effect in db/db mice)” value in assay [2] was “+”.
For `COc1cc(C)ncc1CNC(=O)c1cc(NC(=O)c2cc(F)c(F)cc2Cl)[nH]n1` [Example 2-6, 5-(2-chloro-4,5-difluoro-benzoylamino)-1H-pyrazole-3-carboxylic acid (4-methoxy-6-methyl-pyridin-3-ylmethyl)-amide] the same measures were < 100 nM and “++”.
For the compound `CCCN(CCOC)C(=O)c1cc(NC(=O)c2cc(F)c(F)cc2Cl)[nH]n1` [Example 1-95], in assay [1] (setting [3]), the IC50 is < 100 nM. Moreover, the “vivo (hypoglycemic effect in db/db mice)” value in assay [2] is recorded as “+”.
For `O=C(NCc1ccc(C(F)(F)F)nc1)c1cc(NC(=O)c2cc(F)c(F)cc2Cl)[nH]n1` [Example 3-40] the same measures were < 100 nM and “++”.
In the same order, the values of `Cc1ccccc1CNC(=O)c1cc(NC(=O)c2cc(F)c(F)cc2Cl)[nH]n1` [Example 3-32] are < 100 nM and “+”.
Regarding `Cc1noc(C)c1CNC(=O)c1cc(NC(=O)c2cc(F)c(F)cc2Cl)[nH]n1.Cl` [Example 5-8], the “vivo (hypoglycemic effect in db/db mice)” value in assay [2] is “+”.
As for `CCCCN(CC)C(=O)c1cc(NC(=O)c2cc(F)c(F)cc2Cl)[nH]n1` [Example 1-87], the IC50 in assay [1] (setting [3]) was < 100 nM. For the same compound, the “vivo (hypoglycemic effect in db/db mice)” value in assay [2] is “+”.
As for `CCN(C(=O)c1cc(NC(=O)c2cc(F)c(F)cc2Cl)[nH]n1)C1CCCCC1` [Example 1-80], the IC50 in assay [1] (setting [3]) is < 100 nM. Besides, the “vivo (hypoglycemic effect in db/db mice)” value in assay [2] is given as “+”.
In the same order, the values of `O=C(NCc1ccc(F)cc1)c1cc(NC(=O)c2cc(F)c(F)cc2Cl)[nH]n1` [Example 1-70] are < 100 nM and “++”.
For `O=C(NCc1ccc(-n2cccn2)nc1)c1cc(NC(=O)c2cc(F)c(F)cc2Cl)[nH]n1` [Example 1-137] the same measures were < 100 nM and “+”.
In the same order, the values of `CCN(C(=O)c1cc(NC(=O)c2cc(F)c(F)cc2Cl)[nH]n1)c1ccccc1` [Example 3-11] are < 100 nM and “+”.
For the compound `O=C(NCc1ccc(N2CCCC2)nc1)c1cc(NC(=O)c2cc(F)c(F)cc2Cl)[nH]n1` [Example 5-41], the IC50 in assay [1] (setting [3]) is < 100 nM. Further, the “vivo (hypoglycemic effect in db/db mice)” value in assay [2] is recorded as “+”.
In the same order, the values of `CCCN(C(=O)c1cc(NC(=O)c2cc(F)c(F)cc2Cl)[nH]n1)C1CCN(C(=O)C(=O)O)CC1` [Example 1-123] are < 100 nM and “+”.
Regarding `O=C(NCc1cccs1)c1cc(NC(=O)c2cc(F)c(F)cc2Cl)[nH]n1` [Example 3-26], the IC50 in assay [1] (setting [3]) is < 100 nM. Moreover, the “vivo (hypoglycemic effect in db/db mice)” value in assay [2] was “+”.
Regarding `CN(C)c1ccc(CNC(=O)c2cc(NC(=O)c3cc(F)c(F)cc3Cl)[nH]n2)cc1.Cl` [Example 3-29], in assay [2], the “vivo (hypoglycemic effect in db/db mice)” value was “+”.
Same read-out and setting: the same measure for `O=C(NCc1cnccn1)c1cc(NC(=O)c2cc(F)c(F)cc2Cl)[nH]n1` [Example 5-42]: “+”.
Same read-out and setting: in the case of `O=C(NCc1ccc(N2CCS(=O)(=O)CC2)nc1)c1cc(NC(=O)c2cc(F)c(F)cc2Cl)[nH]n1` [Example 5-44] it was “+”.
The same measure, in the same setting: the same measure for `Cc1nn(C)c(C)c1CNC(=O)c1cc(NC(=O)c2cc(F)c(F)cc2Cl)[nH]n1` [Example 5-9]: “+”; for `COc1cncc(OC)c1CNC(=O)c1cc(NC(=O)c2cc(F)c(F)cc2Cl)[nH]n1` [Example 5-17]: “+”; for `CN(C(=O)c1cc(NC(=O)c2cc(F)c(F)cc2Cl)[nH]n1)c1ccc(C(=O)[O-])cc1.[Na+]` [Example 4-2-1, 4-{[5-(2-chloro-4,5-difluoro-benzoylamino)-1H-pyrazole-3-carbonyl]-methyl-amino}-benzoic acid sodium salt]: “++”.
Turning to `Cl.O=C(NCc1ccc(-c2csnn2)cc1)c1cc(NC(=O)c2cc(F)c(F)cc2Cl)[nH]n1` [Example 5-31], in assay [2], the “vivo (hypoglycemic effect in db/db mice)” value is “+”.
Same read-out and setting: the same measure for `O=C(NCc1ccc(N2CCSCC2)nc1)c1cc(NC(=O)c2cc(F)c(F)cc2Cl)[nH]n1` [Example 5-43]: “+”; for `O=C(NCc1cccnc1)c1cc(NC(=O)c2cc(F)c(F)cc2Cl)[nH]n1` [Example 1-1-1, 5-(2-chloro-4,5-difluoro-benzoylamino)-1H-pyrazole-3-carboxylic acid (pyridin-3-ylmethyl)-amide dihydrochloride]: “++”.
The same measure, in the same setting: in the case of `CS(=O)(=O)O.Cc1noc(C)c1CNC(=O)c1cc(NC(=O)c2cc(F)c(F)cc2Cl)[nH]n1` [Example 5-10] it was “+”.
Consider `O=C(Nc1cc(C(=O)NCc2cccnc2)n[nH]1)c1ccccc1` [Example 7-8], for which the inhibition at 0.3 µM in assay [1] (figure in brackets (300), read-out: IC50 column: % value printed with (300)) is 6.8%.
`O=C(Nc1ccccc1N1CCOCC1)c1cc(NC(=O)c2cc(F)c(F)cc2Cl)[nH]n1` [Example 1-92]: the inhibition at 0.3 µM in assay [1] (compound concentration 300 nmol (in parentheses), read-out: inhibition rate (%) at a certain concentration) turned out to be 11.7%.
In the case of `CCCCN(Cc1ccccc1)C(=O)c1cc(NC(=O)c2cc(F)c(F)cc2Cl)[nH]n1` [Example 1-85], the IC50 in assay [1] (setting [3]) was < 100 nM.
On to `Cc1ccc(S(=O)(=O)Nc2ccccc2CNC(=O)c2cc(NC(=O)c3cc(F)c(F)cc3Cl)[nH]n2)cc1` [Example 6-38], for which the half-maximal inhibitory concentration (IC50) in assay [1] (setting [4]) was < 100 nM.
On the same count and under the same terms, in the case of `O=C(Nc1cc(C(=O)N2C=NC3CCCCC3C2)n[nH]1)c1cc(F)c(F)cc1Cl` (stereo not shown) [Example 6-43] it was < 100 nM.
For the compound `Cc1nc(-c2ccccc2)c(CNC(=O)c2cc(NC(=O)c3cc(F)c(F)cc3Cl)[nH]n2)o1` [Example 1-166], the IC50 in assay [1] (setting [3]) was < 100 nM.
Still for that read-out and setting: in the case of `O=C(NCc1ncccc1C(F)(F)F)c1cc(NC(=O)c2cc(F)c(F)cc2Cl)[nH]n1` [Example 1-27] it was < 100 nM.
As to `O=C(NCc1ccnc(-c2noc(=O)[nH]2)c1)c1cc(NC(=O)c2cc(F)c(F)cc2Cl)[nH]n1` [Example 6-50], the IC50 in assay [1] (setting [4]) was < 100 nM.
